Reference: PubChem BioAssay AID1259411 (Chemical Carcinogenesis Research Information System (CCRIS), 2018)
The source made the active and inactive calls. The rule behind the calls is not given here.

System: rodent carcinogenicity bioassays, tumor incidence
Test: CCRIS carcinogenicity studies
Settings: Dose: 0, Dose: 0
Outline: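 NCI-built, expert-reviewed records of carcinogenicity and related test outcomes (mutagenicity, tumor promotion/inhibition) compiled from published and report sources, historical span 1985-2011, not updated.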

## C=CC(=C)Cl
Species: HAMSTER, Strain/Sex: SYRIAN/FEMALE, Route: INHALATION, 10, 50 PPM 6 HR/D 5 D/WK FOR 18 MO (STUDY DURATION: 18 MO), 10, 50 PPM 6 HR/D 5 D/WK FOR 18 MO (STUDY DURATION: 18 MO)
  carcinogen call: inactive; negative
Species: HAMSTER, Strain/Sex: SYRIAN/MALE, Route: INHALATION, 10, 50 PPM 6HR/D 5 D/WK FOR 18 MO (STUDY DURATION: 18 MO), 10, 50 PPM 6HR/D 5 D/WK FOR 18 MO (STUDY DURATION: 18 MO)
  carcinogen call: inactive; negative
Species: MOUSE, Strain/Sex: ALBINO/MALE, FEMALE, Route: INHALATION, 2.9, 19.18, 189 MG/M3 4 HR/D 6 D/WK FOR 7 MO (STUDY DURATION: 8 MO), 2.9, 19.18, 189 MG/M3 4 HR/D 6 D/WK FOR 7 MO (STUDY DURATION: 8 MO), Tumor Site: Type of Lesion: LUNG: TUMOR
  carcinogen call: active; positive
Species: MOUSE, Strain/Sex: B6C3F1/FEMALE, Route: INHALATION, 12.8, 32, 80 PPM 6 HR/D 5 D/WK FOR 105 WK (STUDY DURATION: 106 WK), 12.8, 32, 80 PPM 6 HR/D 5 D/WK FOR 105 WK (STUDY DURATION: 106 WK), Tumor Site: Type of Lesion: LUNG: ALVEOLAR/BRONCHIOLAR ADENOMA, ALVEOLAR/BRONCHIOLAR CARCINOMA, CIRCULATORY SYSTEM: HEMANGIOMA, HEMANGIOSARCOMA, HAR, Tumor Site: Type of Lesion: LUNG: ALVEOLAR/BRONCHIOLAR ADENOMA, ALVEOLAR/BRONCHIOLAR CARCINOMA, CIRCULATORY SYSTEM: HEMANGIOMA, HEMANGIOSARCOMA, HAR
  carcinogen call: active; positive
Species: MOUSE, Strain/Sex: B6C3F1/MALE, Route: INHALATION, 12.8, 32, 80 PPM 6 HR/D 5 D/WK FOR 105 WK (STUDY DURATION: 106 WK), 12.8, 32, 80 PPM 6 HR/D 5 D/WK FOR 105 WK (STUDY DURATION: 106 WK), Tumor Site: Type of Lesion: LUNG: ALVEOLAR/BRONCHIOLAR ADENOMA, ALVEOLAR/BRONCHIOLAR CARCINOMA, CIRCULATORY SYSTEM: HEMANGIOSARCOMA, HEMANGIOSARCOMA
  carcinogen call: active; positive
Species: RAT, Strain/Sex: F344/FEMALE, Route: INHALATION, 12.8, 32, 80 PPM 6 HR/D 5 D/WK FOR 105 WK (STUDY DURATION: 106 WK), 12.8, 32, 80 PPM 6 HR/D 5 D/WK FOR 105 WK (STUDY DURATION: 106 WK), Tumor Site: Type of Lesion: ORAL CAVITY: SQUAMOUS CELL PAPILLOMA, SQUAMOUS CELL PAPILLOMA OR CARCINOMA, THYROID GLAND: FOLLICULAR CELL ADENOMA OR CA
  carcinogen call: active; positive
Species: RAT, Strain/Sex: F344/MALE, Route: INHALATION, 12.8, 32, 80 PPM 6 HR/D 5 D/WK FOR 105 WK (STUDY DURATION: 106 WK), 12.8, 32, 80 PPM 6 HR/D 5 D/WK FOR 105 WK (STUDY DURATION: 106 WK), Tumor Site: Type of Lesion: ORAL CAVITY: SQUAMOUS CELL PAPILLOMA, SQUAMOUS PAPILLOMA OR CARCINOMA, THYROID GLAND: FOLLICULAR CELL ADENOMA OR CARCINO
  carcinogen call: active; positive
Species: RAT, Strain/Sex: WISTAR/FEMALE, Route: INHALATION, 10, 50 PPM 6 HR/D 5D/WK FOR 24 MO AT 72 WK 73 FEMALE RATS IN LOW DOSE GROUP DIED DUE TO MALFUNCTION IN EXPOSURE APPAR, 10, 50 PPM 6 HR/D 5D/WK FOR 24 MO AT 72 WK 73 FEMALE RATS IN LOW DOSE GROUP DIED DUE TO MALFUNCTION IN EXPOSURE APPAR
  carcinogen call: inactive; negative
Species: RAT, Strain/Sex: WISTAR/MALE, Route: INHALATION, 10, 50 PPM 6 HR/D 5D/WK FOR 24 MO AT 72 WK 82 MALE RATS IN LOW DOSE GROUP DIED DUE TO MALFUNCTION IN EXPOSURE APPARAT, 10, 50 PPM 6 HR/D 5D/WK FOR 24 MO AT 72 WK 82 MALE RATS IN LOW DOSE GROUP DIED DUE TO MALFUNCTION IN EXPOSURE APPARAT
  carcinogen call: inactive; negative

## C[C@@H]1O[C@@H](OC[C@H]2O[C@@H](Oc3c(-c4ccc(O)c(O)c4)oc4cc(OS(=O)(=O)O)cc(OS(=O)(=O)O)c4c3=O)[C@H](O)[C@@H](O)[C@@H]2O)[C@H](O)[C@H](O)[C@H]1O
Species: RAT, Strain/Sex: SPRAGUE-DAWLEY/FEMALE, Route: GAVAGE, 10, 27, 71, 188, 500 MG/KG 3/WK FOR 2 YR (STUDY DURATION: 2 YR), 10, 27, 71, 188, 500 MG/KG 3/WK FOR 2 YR (STUDY DURATION: 2 YR)
  carcinogen call: inactive; negative
Species: RAT, Strain/Sex: SPRAGUE-DAWLEY/MALE, Route: GAVAGE, 10, 27, 71, 188, 500 MG/KG 3/WK FOR 2 YR (STUDY DURATION: 2 YR), 10, 27, 71, 188, 500 MG/KG 3/WK FOR 2 YR (STUDY DURATION: 2 YR)
  carcinogen call: inactive; negative

## CCN(CC)C(=O)Nc1ccc(OCC(O)CNC(C)(C)C)c(C(C)=O)c1 (centres undefined)
Species: MOUSE, Strain/Sex: CD-1/FEMALE, Route: ORAL, 100, 300, 900 MG/KG IN DIET FOR DURATION OF STUDY (STUDY DURATION: 2 YR), 100, 300, 900 MG/KG IN DIET FOR DURATION OF STUDY (STUDY DURATION: 2 YR)
  carcinogen call: inactive; negative
Species: MOUSE, Strain/Sex: CD-1/MALE, Route: ORAL, 100, 300, 900 MG/KG IN DIET FOR DURATION OF STUDY (STUDY DURATION: 2 YR), 100, 300, 900 MG/KG IN DIET FOR DURATION OF STUDY (STUDY DURATION: 2 YR)
  carcinogen call: inactive; negative
Species: RAT, Strain/Sex: SPRAGUE-DAWLEY/FEMALE, Route: ORAL, 100, 300, 900 MG/KG IN DIET FOR 316 D THEN 0, 30, 100, 300 MG/KG FOR DURATION OF STUDY (STUDY DURATION: 2 YR), 100, 300, 900 MG/KG IN DIET FOR 316 D THEN 0, 30, 100, 300 MG/KG FOR DURATION OF STUDY (STUDY DURATION: 2 YR)
  carcinogen call: inactive; negative
Species: RAT, Strain/Sex: SPRAGUE-DAWLEY/MALE, Route: ORAL, 100, 300, 900 MG/KG IN DIET FOR 316 D THEN 0, 30, 100, 300 MG/KG FOR DURATION OF STUDY (STUDY DURATION: 2 YR), 100, 300, 900 MG/KG IN DIET FOR 316 D THEN 0, 30, 100, 300 MG/KG FOR DURATION OF STUDY (STUDY DURATION: 2 YR)
  carcinogen call: inactive; negative

## C[C@]12CCC(=O)C=C1CC[C@@H]1[C@@H]2CC[C@]2(C)C(=O)CC[C@@H]12
Species: Mouse, Strain/Sex: B6C3F1/Female (50/Group), Route: Oral, 2, 10, 50 mg/kg in 0.5% methylcellulose solution, by gavage, 5 d/wk for 2 yr, 2, 10, 50 mg/kg in 0.5% methylcellulose solution, by gavage, 5 d/wk for 2 yr, Tumor Site: Type of Lesion: Liver: hepatocellular adenoma (14/50, 16/50, 18/50, 28/50), hepatocellular carcinoma (5/50, 13/50, 15/50, 15/50), hepato, Tumor Site: Type of Lesion: Liver: hepatocellular adenoma (14/50, 16/50, 18/50, 28/50), hepatocellular carcinoma (5/50, 13/50, 15/50, 15/50), hepato
  carcinogen call: active; positive. (authors describe as clear evidence)
Species: Mouse, Strain/Sex: B6C3F1/Male (50/Group), Route: Oral, 10, 20, 50 mg/kg in 0.5% methylcellulose solution, by gavage, 5 d/wk for 2 yr, 10, 20, 50 mg/kg in 0.5% methylcellulose solution, by gavage, 5 d/wk for 2 yr, Tumor Site: Type of Lesion: Liver: hepatocellular adenoma, multiple (16/50, 27/50, 23/50, 34/50), hepatocellular adenoma (includes multiples) (32/50
  carcinogen call: active; positive. (authors describe as clear evidence)
Species: Rat, Strain/Sex: F344/N / Female (50/Group), Route: Oral, 10, 20, 50 mg/kg in 0.5% methylcellulose solution, by gavage, 5 d/wk for 2 yr, 10, 20, 50 mg/kg in 0.5% methylcellulose solution, by gavage, 5 d/wk for 2 yr
  carcinogen call: inactive; negative. (authors describe as equivocal evidence based on incidence of mononucl
Species: Rat, Strain/Sex: F344/N / Male (50/Group), Route: Oral, 10, 20, 50 mg/kg in 0.5% methylcellulose solution, by gavage, 5 d/wk for 2 yr, 10, 20, 50 mg/kg in 0.5% methylcellulose solution, by gavage, 5 d/wk for 2 yr
  carcinogen call: inactive; negative. (authors describe as equivocal evidence based on alveolar/bronchiolar
